For this data set the following is noted: 298.15 K, Liquid; for vapor or sublimation pressure: Closed cell (Static) method; for mass density: Vibrating tube method.

The values that follow come from the NIST ThermoML archive (doi:10.1016/j.jct.2009.04.005).

SMILES strings stand for the structures. Numbers after ± are expanded uncertainties.

One may read the vapor or sublimation pressure as the equilibrium pressure above the liquid or solid. Usually mass density stands for the mass of a sample divided by its volume. On to `CCCCCl` [1-chlorobutane], for which the “vapor or sublimation pressure” value came out at 13.52 ± 0.034 kPa and the mass density was 880.805 ± 0.3 kg/m3.
For `CCCCO` [butan-1-ol] the same measures were 0.91 ± 0.012 kPa and 805.802 ± 0.15 kg/m3.
For the compound `CCC(C)O` (stereo not drawn) [butan-2-ol], the “vapor or sublimation pressure” value is reported as 2.34 ± 0.02 kPa and the mass density came to 802.451 ± 0.31 kg/m3.
`CCCCCC` [hexane]: the “vapor or sublimation pressure” value was 20.22 ± 0.05 kPa and the mass density is on record as 654.96 ± 0.33 kg/m3.
